# Measurements taken from patent US20230295212A1 (ROME Therapeutics, Inc., priority 2022, published 2023).
# Experiments:
# [1] = test system: THP1-Dual KO-TREX1 xenograft tumors; test: Altering IFN production in THP1 TREX1 KO xenografts (compounds 2, 25, 40); format: in vivo, mouse; conditions: CB-17 SCID mice, decitabine 5 mg/kg IP, test compound 10, 30 or 100 mg/kg PO once daily 4 days, tumors 24 h post-last dose
# Description: Exemplary compounds 2, 25 and 40 were tested for their ability to alter IFN levels in THP1-Dual™ KO-TREX1 xenografts in mice. Assay procedures are described below.
# CB-17 SCID female mice were inoculated subcutaneously with 10 million THP1-Dual™ KO-TREX1 cells in 200 μl PBS with Matrigel (1:1) and grouped when tumor volume reached 350-400 mm^3. Mice bearing THP1-Dual™ KO-TREX1 xenograft tumors were then separated into 5 groups. Three groups were administered: (1) decitabine (DAC) at 5 mg/kg IP, once daily, for 4 days, and (2) test compound at 10, 30, or 100 mg/kg, PO, once daily, for 4 days. One group was administered decitabine (DAC) at 5 mg/kg IP, once daily, for 4 days, and the test compound vehicle control. The final group was administered the vehicle control from both the test compound and the vehicle control from decitabine. Decitabine is formulated in sterile PBS, pH 7.4, and Compound 2, 25, and 40 were formulated in 20% PEG400 in PBS.
# Tumors were harvested 24 h post-last dose administered on day 4, ground in PBS at 50 Hz for 5 min, and kept on ice for 30 min while being vortexed every 5 min. […] Equal amounts of proteins were added to 96-well black plates, and luciferase signal was measured using the QUANTI-Luc™ detection medium according to manufacturer's instructions. Luminescence was measured using the EnVision® 2105 Multimode Plate Reader. […]
# [2] = test system: human PBMC; test: Decitabine-stimulated human PBMC assay (IFN-β, cell viability); format: cell-based; conditions: anti-CD3/anti-CD28, decitabine 10 μM, 5 days
# Description: EasySep buffer (32 mL, […] Technologies, cat. #20144) was used to dilute 8 mL of LRSC buffy coat (from fresh Leukopak) with gentle mixing. The diluted buffy coat (20 mL) was transferred into each of two SepMate 50 tubes, and the tubes were filled with 15 mL of Lyphoprep ([…], cat. #07851) density gradient. The SepMate tubes were then centrifuged at 1200G for 10 minutes at room temperature with the brake on. The top layer of supernatant was collected in SepMate tubes by quickly pouring it into a new 50 mL conical tube. The PBMCs were washed with EasySep buffer ×2 by centrifuging at 300G for 5 minutes. The cells were resuspended in 30 mL of EasySep and centrifuged at 100G for 5 minutes with the brake off, and the platelets were removed. The cells were then resuspended in 6 mL of 1×RBC lysis buffer (Invitrogen) and incubated at 37° C. for 5 minutes. 25 mL of EasySep buffer was then mixed into the tube and centrifuged at 300G for 5 minutes. The cells were resuspended in 10 mL of EasySep buffer and the cells were then counted with Cellometer (AO/PI). The PBMCs were resuspended in RPMI1640 (ThermoFisher)^+10% FBS (HyClone)^+μ/s at 3×10^6/mL. The PBMCs (100 μL, 300 k PBMCs) were then seeded in a 96-well flat bottom microplate (Corning) that had been precoated with 100 μL of anti-CD3 antibody (10 μg/mL in PBS, Biolegend) or PBS at 4° C., one day before the assay was commenced.
# To each well the following solutions were added 1) 100 μL of cells (final cell number per well is 3×10^5 cell/well); 2) 25 μL of anti-CD28 antibody at 6×(5 μg/mL final concentration, Biolegend); 3) 25 μL of decitabine at 6×(10 μM final concentration); and 4) Compound in DMSO was dispensed directly into each well with a d300e digital dispenser (Tecan). The final concentration of DMSO for each well was normalized to 0.3%. The plate was incubated at 37° C. without any agitation for 5 days. Samples were collected 120 hours after incubation to determine IFN-0 and IL-2 levels using a U-PLEX Human IFN-β Assay Sector (5PL) (MSD, cat. #K151VIK-2).
# After 5 days, the plate was spun down at 100×G for 5 minutes. Supernatants (100 μL) were collected for interferon β(IFN-β) analysis using the MSD assay noted above, and any residual supernatant was stored at −80° C.
smiles,measurement,setting,value
"Nc1ccn([C@H]2C[C@H](O)[C@](CO)(CCl)O2)c(=O)n1 [Compound 2, 4-amino-1-((2R,4S,5R)-5-(chloromethyl)-4-hydroxy-5-(hydroxymethyl)tetrahydrofuran-2-yl)pyrimidin-2(1H)-one]",inhibition of DAC-induced IFN signal in THP1 tumors,[1],potent inhibition of DAC-induced IFN signal
same,IFN-β level,[2],inhibition of IFN-0
